The target of assay [1] is T1, Inactive N-terminal His6 tagged murine P38 (Mus musculus, UniProt P47811).
T1 construct: His6 (N); made in house
The assay can be described thus: p38 cascade assay (HTRF; inactive p38 activated by MKK-6, ATF-2 phosphorylation). The class given is biochemical. The following applies: inactive p38 preincubated with compound, then MKK-6, ATF-2, ATP; read-out: 50% inhibition in the p38 cascade assay at concentrations within the range. Here is the method:
The homogeneous time resolved fluorescence method (HTRF) assay measured the phosphorylation of human activating transcription factor (ATF)-2 protein by P38 following activation by MKK-6 and was run in A384 well plate format. […] MBP-tagged mouse MKK-6 (final concentration 50 nM), GST-tagged ATF-2 (fmal concentration 200 nM) and ATP (final concentration 50 μM) were then added and the incubation continued for 90 min. p38, MKK-6 and ATF-2 were prepared in the Protein Production Group, Aventis Pharmaceuticals. XL665 labeled anti-GST antibody (Cis Bio International) and cryptate labeled anti-pbospho-ATF2 antibody (Cis Bio International) were then added to generate the specific signal proportional to the phosphorylation of the substrate. The close proximity of XL665 labeled anti-GST antibody/phosphorylated GST-ATF2 complex and the cryptate labeled anti-phospho-ATF2 antibody results in a fluorescence transfer from cryptate to XL665. The resulting fluorescence signal was than read on a LJL Acquest set at multi-method mode using a fluorescence filter set (E=360 nm, Em=615/665 nm) with UV dichroic mirror (Integration time: 300000 μs). The results are reported as IC50 values. Compounds were tested over the concentration range of 3×10^−10M to 3×10^−5M.
On the technique in general: TR-FRET usually uses a lanthanide donor and a delayed reading to cut background.

The test system of assay [2] is TNF-alpha release in THP-1 cells. The assay can be described thus: LPS-induced TNF-alpha release in THP-1 cells. Format: cell-based. The settings on record: Homo sapiens, THP-1, LPS-stimulated THP-1 cells; read-out: 50% inhibition in the LPS-induced TNF-alpha release in THP-1 cells assay at concentrations within the range. The method in brief:
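Undifferentiated THP-1 monocytes (1×10^6 cells/ml, 1% FCS) preincubated 1 h at 37° C with compound (1×10^−9 to 1×10^−6 M, 0.3% DMSO), then stimulated with LPS (20 μg/ml) for 18 h. Supernatant TNF-alpha measured by sandwich ELISA (TMB read-out), interpolated from a log/log standard curve (0.125-16 ng/ml).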

T1 sequence (P47811 whole entry): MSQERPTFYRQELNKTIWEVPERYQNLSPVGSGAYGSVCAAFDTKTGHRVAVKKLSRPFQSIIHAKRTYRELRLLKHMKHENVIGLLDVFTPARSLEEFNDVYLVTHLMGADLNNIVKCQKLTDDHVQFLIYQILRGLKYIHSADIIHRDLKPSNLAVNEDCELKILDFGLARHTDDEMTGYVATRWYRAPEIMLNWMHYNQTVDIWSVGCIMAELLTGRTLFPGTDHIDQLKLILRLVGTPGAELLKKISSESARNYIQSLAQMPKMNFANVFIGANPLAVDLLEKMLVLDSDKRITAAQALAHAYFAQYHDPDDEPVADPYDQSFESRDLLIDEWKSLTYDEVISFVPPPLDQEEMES

For the compound `Cc1ccc(-n2nc(C(C)(C)C)cc2NC(=O)Nc2ccc(CC3CCN(C(=O)c4sc(C)nc4C)CC3)cc2)cc1` [Compound A219, 1-(5-tert-Butyl-2-p-tolyl-2H-pyrazol-3-yl)-3-{4-[1-(2,4-dimethyl-thiazole-5-carbonyl)-piperidin-4-ylmethyl]-phenyl}-urea], the IC50 lay within 10 to 100 nM in assay [1] and 10 to 500 nM in assay [2]. For `COCC(=O)N1CCC(Cc2cccc(NC(=O)Nc3cc(C(C)(C)C)nn3-c3ccc(C)cc3)c2)CC1` [Compound A173, 1-(5-tert-Butyl-2-p-tolyl-2H-pyrazol-3-yl)-3-{3-[1-(2-methoxy-acetyl)-piperidin-4-ylmethyl]-phenyl}-urea] the same measures were 10 to 100 nM and 10 to 500 nM. Consider `Cc1ccc(-n2nc(C(C)(C)C)cc2NC(=O)Nc2ccc(CC3CCN(C(=O)c4oc5ccccc5c4C)CC3)cc2)cc1` [Compound A290, 1-(5-tert-Butyl-2-p-tolyl-2H-pyrazol-3-yl)-3-{4-[1-(3-methyl-benzofuran-2-carbonyl)-piperidin-4-ylmethyl]-phenyl}-urea], for which the results for the IC50 in assay [1] and in assay [2] were 10 to 100 nM and 10 to 500 nM, respectively.

With `Cc1ccc(-n2nc(C(C)(C)C)cc2NC(=O)Nc2ccc(CC3CCN(C(=O)c4cnc(O)c(Cl)c4)CC3)cc2)cc1` [Compound A326, 1-(5-tert-Butyl-2-p-tolyl-2H-pyrazol-3-yl)-3-{4-[1-(5-chloro-6-hydroxy-pyridine-3-carbonyl)-piperidin-4-ylmethyl]-phenyl}-urea], the results for the IC50 in assay [1] and in assay [2] were 10 to 100 nM and 10 to 500 nM, respectively.

Take `Cc1ccc(-n2nc(C(C)(C)C)cc2NC(=O)Nc2cccc(CC3CCN(C(=O)c4sc(C)nc4C)CC3)c2)cc1` [Compound A28, 1-(5-tert-Butyl-2-p-tolyl-2H-pyrazol-3-yl)-3-{3-[1-(2,4-dimethyl-thiazole-5-carbonyl)-piperidin-4-ylmethyl]-phenyl}-urea]: the IC50 in assay [1] lay within 10 to 100 nM; in assay [2], 10 to 500 nM. As for `Cc1ccc(-n2nc(C(C)(C)C)cc2NC(=O)Nc2ccc(CC3CCN(C(=O)c4ccsc4)CC3)cc2)cc1` [Compound A294, 1-(5-tert-Butyl-2-p-tolyl-2H-pyrazol-3-yl)-3-{4-[1-(thiophene-3-carbonyl)-piperidin-4-ylmethyl]-phenyl}-urea], the results for the IC50 in assay [1] and in assay [2] were 10 to 100 nM and 10 to 500 nM, respectively. As for `COc1cscc1C(=O)N1CCC(Cc2cccc(NC(=O)Nc3cc(C(C)(C)C)nn3-c3ccc(C)cc3)c2)CC1` [Compound A123, 1-(5-tert-Butyl-2-p-tolyl-2H-pyrazol-3-yl)-3-{3-[1-(4-methoxy-thiophene-3-carbonyl)-piperidin-4-ylmethyl]-phenyl}-urea], the IC50 in assay [1] lay in the range of 10 to 100 nM; in assay [2] it was 10 to 500 nM. In the case of `Cc1ccc(-n2nc(C(C)(C)C)cc2NC(=O)Nc2ccc(CC3CCN(C(=O)c4ccc5ncccc5c4)CC3)cc2)cc1` [Compound A386, 1-(5-tert-Butyl-2-p-tolyl-2H-pyrazol-3-yl)-3-{4-[1-(quinoline-6-carbonyl)-piperidin-4-ylmethyl]-phenyl}-urea], the IC50 in assay [1] was in the range of 10 to 100 nM; in assay [2], 10 to 500 nM. For `Cc1ccc(-n2nc(C(C)(C)C)cc2NC(=O)Nc2cccc(CC3CCN(C(=O)CNC(=O)c4ccccc4)CC3)c2)cc1` [Compound A163, N-[2-(4-{3-[3-(5-tert-butyl-2-p-tolyl-2H-pyrazol-3-yl)-ureido]-benzyl}-piperidin-1-yl)-2-oxo-ethyl]-benzamide] the same measures were 10 to 100 nM and 10 to 500 nM. For `Cc1ccc(-n2nc(C(C)(C)C)cc2NC(=O)Nc2ccc(CC3CCN(C(=O)c4ccncc4)CC3)cc2)cc1` [Compound A364, 1-(5-tert-Butyl-2-p-tolyl-2H-pyrazol-3-yl)-3-{4-[1-(pyridine-4-carbonyl)-piperidin-4-ylmethyl]-phenyl}-urea] the same measures were 10 to 100 nM and 10 to 500 nM. For `Cc1ccc(-n2nc(C(C)(C)C)cc2NC(=O)Nc2ccc(CC3CCN(C(=O)c4cnccn4)CC3)cc2)cc1` [Compound A256, 1-(5-tert-Butyl-2-p-tolyl-2H-pyrazol-3-yl)-3-{4-[1-(pyrazine-2-carbonyl)-piperidin-4-ylmethyl]-phenyl}-urea], the IC50 in assay [1] lay within 10 to 100 nM; in assay [2], 10 to 500 nM. With `Cc1ccc(-n2nc(C(C)(C)C)cc2NC(=O)Nc2ccc(CC3CCN(C(=O)c4cccc(C)n4)CC3)cc2)cc1` [Compound A334, 1-(5-tert-Butyl-2-p-tolyl-2H-pyrazol-3-yl)-3-{4-[1-(6-methyl-pyridine-2-carbonyl)-piperidin-4-ylmethyl]-phenyl}-urea], the IC50 in assay [1] was 10 to 100 nM; in assay [2], 10 to 500 nM.

For `CC(=O)NCC(=O)N1CCC(Cc2ccc(NC(=O)Nc3cc(C(C)(C)C)nn3-c3ccc(C)cc3)cc2)CC1` [Compound A375, N-[2-(4-{4-[3-(5-tert-Butyl-2-p-tolyl-2H-pyrazol-3-yl)-ureido]-benzyl}-piperidin-1-yl)-2-oxo-ethyl]-acetamide], the IC50 in assay [1] was in the range of 10 to 100 nM; in assay [2] it was 10 to 500 nM. For the compound `Cc1ccc(-n2nc(C(C)(C)C)cc2NC(=O)Nc2ccc(CC3CCN(C(=O)c4nccnc4N)CC3)cc2)cc1` [Compound A283, 1-{4-[1-(3-Amino-pyrazine-2-carbonyl)-piperidin-4-ylmethyl]-phenyl}-3-(5-tert-butyl-2-p-tolyl-2H-pyrazol-3-yl)-urea], the IC50 in assay [1] is 10 to 100 nM; in assay [2], 10 to 500 nM. The like results for `Cc1ccc(-n2nc(C(C)(C)C)cc2NC(=O)Nc2ccc(CC3CCN(C(=O)Cc4ccc(F)cc4F)CC3)cc2)cc1` [Compound A217, 1-(5-tert-Butyl-2-p-tolyl-2H-pyrazol-3-yl)-3-(4-{1-[2-(2,4-difluoro-phenyl)-acetyl]-piperidin-4-ylmethyl}-phenyl)-urea] were, in that order, 10 to 100 nM and 10 to 500 nM.

For `Cc1ccc(-n2nc(C(C)(C)C)cc2NC(=O)Nc2cccc(CC3CCN(C(=O)c4ccncc4)CC3)c2)cc1` [Compound A170, 1-(5-tert-Butyl-2-p-tolyl-2H-pyrazol-3-yl)-3-{3-[1-(pyridine-4-carbonyl)-piperidin-4-ylmethyl]-phenyl}-urea], the IC50 is 10 to 100 nM in assay [1] and 10 to 500 nM in assay [2]. For `CC(=O)OCc1ccc(C(=O)N2CCC(Cc3ccc(NC(=O)Nc4cc(C(C)(C)C)nn4-c4ccc(C)cc4)cc3)CC2)cc1` [Compound A336, Acetic acid 4-(4-{4-[3-(5-tert-butyl-2-p-tolyl-2H-pyrazol-3-yl)-ureido]-benzyl}-piperidin-1-carbonyl)-benzyl ester] the same measures were 10 to 100 nM and 10 to 500 nM. For the compound `CC(=O)Nc1cccc(C(=O)N2CCC(Cc3cccc(NC(=O)Nc4cc(C(C)(C)C)nn4-c4ccc(C)cc4)c3)CC2)c1` [Compound A88, N-[3-(4-{3-[3-(5-tert-Butyl-2-p-tolyl-2H-pyrazol-3-yl)-ureido]-benzyl}-piperidine-1-carbonyl)-phenyl]-acetamide], the IC50 in assay [1] lay within 10 to 100 nM; in assay [2], 10 to 500 nM.

For the compound `COc1ccc(C(=O)N2CCC(Cc3cccc(NC(=O)Nc4cc(C(C)(C)C)nn4-c4ccc(C)cc4)c3)CC2)c(C)c1` [Compound A120, 1-(5-tert-Butyl-2-p-tolyl-2H-pyrazol-3-yl)-3-{3-[1-(4-methoxy-2-methyl-benzoyl)-piperidin-4-ylmethyl]-phenyl}-urea], the IC50 in assay [1] lay in the range of 10 to 100 nM; in assay [2], 10 to 500 nM. For `COC(=O)CCC(=O)N1CCC(Cc2cccc(NC(=O)Nc3cc(C(C)(C)C)nn3-c3ccc(C)cc3)c2)CC1` [Compound A174, 4-(4-{3-[3-(5-tert-Butyl-2-p-tolyl-2H-pyrazol-3-yl)-ureido]-benzyl}-piperidin-1-yl)-4-oxo-butyric acid methyl ester], the IC50 in assay [1] fell in the range of 10 to 100 nM. The same measure, in the same setting: next, `CC(=O)Nc1cccc(C(=O)N2C3CCC2CC(Cc2cccc(NC(=O)Nc4cc(C(C)(C)C)nn4-c4ccc(C)cc4)c2)C3)c1` (stereo not drawn) [Compound A707, N-[3-(3-{3-[3-(5-tert-Butyl-2-p-tolyl-2H-pyrazol-3-yl)-ureido]-benzyl}-8-aza-bicyclo[3.2.1]octane-8-carbonyl)-phenyl]-acetamide]: 10 to 100 nM; `CC(=O)C(=CC(=O)c1ccccc1)NC(=O)N1CCC(Cc2ccc(NC(=O)Nc3cc(C(C)(C)C)nn3-c3ccc(C)cc3)cc2)CC1` [Compound A1641, 4-{4-[3-(5-tert-Butyl-2-p-tolyl-2H-pyrazol-3-yl)-ureido]-benzyl}-piperidine-1-carboxylic acid (1-acetyl-3-oxo-3-phenyl-propenyl)-amide]: 10 to 100 nM. `Cc1ccc(-n2nc(C(C)(C)C)cc2NC(=O)Nc2cccc(CC3CCN(C(=O)C4CCNCC4)CC3)c2)cc1` [Compound A1639, 1-(5-tert-Butyl-2-p-tolyl-2H-pyrazol-3-yl)-3-{3-[1-(piperidine-4-carbonyl)-piperidin-4-ylmethyl]-phenyl}-urea]: the IC50 in assay [1] was in the range of 10 to 100 nM.
